In the NIST ThermoML archive (doi:10.1021/je400212t):
“And” between values parts separate entries of the source, which are not always exact repeats. Equal values may be shown once. ± gives the expanded uncertainty stated by the source.

Conditions: Liquid, Transpiration method

NCc1ccccc1 [benzylamine]
Conditions	vapor or sublimation pressure
275.5 K	0.01437 ± 0.00067 kPa
276.7 K	0.01472 ± 0.00068 kPa and 0.01525 ± 0.00071 kPa
278.6 K	0.01828 ± 0.00085 kPa
279.6 K	0.01912 ± 0.00089 kPa and 0.02004 ± 0.00093 kPa
281.5 K	0.02307 ± 0.0011 kPa
282.3 K	0.02534 ± 0.0012 kPa and 0.02615 ± 0.0012 kPa
284.5 K	0.03135 ± 0.0015 kPa
285.7 K	0.03458 ± 0.0016 kPa and 0.03341 ± 0.0015 kPa
287.6 K	0.03874 ± 0.0018 kPa
288 K	0.03934 ± 0.0018 kPa
290.5 K	0.04695 ± 0.0022 kPa
291.6 K	0.05362 ± 0.0025 kPa
293.5 K	0.06098 ± 0.0028 kPa
294.2 K	0.06487 ± 0.003 kPa
296.5 K	0.07884 ± 0.0037 kPa
297.7 K	0.08247 ± 0.0038 kPa
298.4 K	0.0869 ± 0.004 kPa
300.3 K	0.1015 ± 0.0047 kPa
301.3 K	0.1137 ± 0.0053 kPa
303.3 K	0.1283 ± 0.006 kPa
303.4 K	0.1277 ± 0.0059 kPa and 0.1263 ± 0.0059 kPa
303.5 K	0.126 ± 0.0059 kPa
304.3 K	0.1363 ± 0.0063 kPa
306.1 K	0.1469 ± 0.0068 kPa
306.3 K	0.1514 ± 0.007 kPa
307.4 K	0.1693 ± 0.0079 kPa
308.3 K	0.1781 ± 0.0083 kPa
308.4 K	0.1767 ± 0.0082 kPa
309.4 K	0.1871 ± 0.0088 kPa
309.5 K	0.1951 ± 0.0092 kPa
310.3 K	0.2082 ± 0.0097 kPa
312.2 K	0.2284 ± 0.011 kPa
312.3 K	0.2272 ± 0.011 kPa and 0.2339 ± 0.011 kPa
313.4 K	0.2491 ± 0.012 kPa
315.6 K	0.3016 ± 0.014 kPa

CCCCCCCCCCN [1-decanamine]
Conditions	vapor or sublimation pressure
299.1 K	0.013 ± 0.0006 kPa
300.2 K	0.014 ± 0.0007 kPa
301.3 K	0.0158 ± 0.0007 kPa
304 K	0.0195 ± 0.0009 kPa
306.2 K	0.0228 ± 0.0011 kPa
307.3 K	0.0262 ± 0.0012 kPa
308.6 K	0.0291 ± 0.0014 kPa
310.2 K	0.0321 ± 0.0015 kPa
312.2 K	0.036 ± 0.0017 kPa
313.2 K	0.0426 ± 0.002 kPa
315.1 K	0.046 ± 0.0021 kPa
316.2 K	0.0512 ± 0.0024 kPa
317.2 K	0.0553 ± 0.0026 kPa
320 K	0.0655 ± 0.003 kPa
320.9 K	0.0722 ± 0.0034 kPa
323.2 K	0.0805 ± 0.0037 kPa
324.3 K	0.0911 ± 0.0042 kPa and 0.0914 ± 0.0042 kPa
327.2 K	0.106 ± 0.0049 kPa
330.1 K	0.135 ± 0.0063 kPa and 0.1356 ± 0.0063 kPa
332.8 K	0.1661 ± 0.0077 kPa and 0.1645 ± 0.0076 kPa
333.1 K	0.1628 ± 0.0076 kPa and 0.1635 ± 0.0076 kPa
335.9 K	0.1979 ± 0.0092 kPa and 0.2119 ± 0.0098 kPa
338.9 K	0.2519 ± 0.012 kPa and 0.2628 ± 0.012 kPa
341.9 K	0.3064 ± 0.014 kPa and 0.3025 ± 0.014 kPa
343 K	0.3357 ± 0.016 kPa

CC(N)c1ccccc1 (configuration not stated) [1-phenylethanamine]
Conditions	vapor or sublimation pressure
283.6 K	0.02509 ± 0.0013 kPa
287.8 K	0.03534 ± 0.0019 kPa
291.3 K	0.04928 ± 0.0026 kPa and 0.04951 ± 0.0027 kPa
295.3 K	0.06595 ± 0.0035 kPa
299.2 K	0.08866 ± 0.0047 kPa
303.1 K	0.1183 ± 0.0063 kPa
307.1 K	0.1552 ± 0.0083 kPa
311 K	0.2024 ± 0.011 kPa
314.9 K	0.2602 ± 0.014 kPa
318.9 K	0.3391 ± 0.018 kPa
322.8 K	0.4391 ± 0.023 kPa

CCCCCCCCN [1-octanamine]
Conditions	vapor or sublimation pressure
274.2 K	0.0157 ± 0.0007 kPa
277.7 K	0.0208 ± 0.001 kPa
281 K	0.0274 ± 0.0013 kPa
283.2 K	0.0325 ± 0.0015 kPa
283.6 K	0.0347 ± 0.0016 kPa
285.9 K	0.0428 ± 0.002 kPa
286.5 K	0.0428 ± 0.002 kPa
289.2 K	0.0517 ± 0.0024 kPa
289.6 K	0.0545 ± 0.0025 kPa
292.4 K	0.069 ± 0.0032 kPa and 0.0677 ± 0.0031 kPa
295.2 K	0.084 ± 0.0039 kPa
295.3 K	0.0856 ± 0.004 kPa and 0.0834 ± 0.0039 kPa
298.1 K	0.1047 ± 0.0049 kPa
298.5 K	0.1064 ± 0.0049 kPa
301.1 K	0.1353 ± 0.0064 kPa
301.2 K	0.1294 ± 0.006 kPa and 0.1369 ± 0.0064 kPa and 0.1341 ± 0.0062 kPa
301.3 K	0.1312 ± 0.0061 kPa and 0.1328 ± 0.0062 kPa
304 K	0.1653 ± 0.0077 kPa
304.1 K	0.1667 ± 0.0077 kPa
307.1 K	0.2113 ± 0.0098 kPa
307.3 K	0.2102 ± 0.0098 kPa
310.2 K	0.2494 ± 0.012 kPa
310.3 K	0.2578 ± 0.012 kPa
312.3 K	0.3051 ± 0.014 kPa
313 K	0.3121 ± 0.015 kPa
313.3 K	0.3238 ± 0.015 kPa

CCCCCCCN [1-heptanamine]
Conditions	vapor or sublimation pressure [kPa]
280.2 K	0.07823 ± 0.0036
282.2 K	0.09451 ± 0.0044
284.2 K	0.1088 ± 0.005
286.2 K	0.1232 ± 0.0057
288.2 K	0.1408 ± 0.0065
290.2 K	0.1641 ± 0.0076
292.2 K	0.1907 ± 0.0089
294.2 K	0.2219 ± 0.01
296.2 K	0.2488 ± 0.012
298.3 K	0.2885 ± 0.013
300.3 K	0.3288 ± 0.015
302.2 K	0.38 ± 0.018
303.2 K	0.4098 ± 0.019
306.2 K	0.5027 ± 0.023

NCCc1ccccc1 [2-phenylethylamine]
Conditions	vapor or sublimation pressure
285.2 K	0.01545 ± 0.00072 kPa
287.4 K	0.01817 ± 0.00084 kPa
288.2 K	0.01989 ± 0.00092 kPa and 0.01942 ± 0.0009 kPa
290.1 K	0.02316 ± 0.0011 kPa
293.1 K	0.02888 ± 0.0014 kPa
293.2 K	0.03129 ± 0.0015 kPa
298.2 K	0.04648 ± 0.0022 kPa and 0.04334 ± 0.002 kPa
298.3 K	0.0443 ± 0.0021 kPa
300.1 K	0.05196 ± 0.0024 kPa
302 K	0.06007 ± 0.0028 kPa
303.2 K	0.06532 ± 0.003 kPa
303.3 K	0.06414 ± 0.003 kPa and 0.06328 ± 0.003 kPa
304.2 K	0.06955 ± 0.0032 kPa
305.1 K	0.07177 ± 0.0033 kPa and 0.0755 ± 0.0035 kPa
306.4 K	0.08176 ± 0.0038 kPa
308.2 K	0.09258 ± 0.0043 kPa and 0.0878 ± 0.0041 kPa
310.4 K	0.1067 ± 0.005 kPa
311.2 K	0.1201 ± 0.0056 kPa
313.2 K	0.1331 ± 0.0062 kPa
313.4 K	0.1311 ± 0.0061 kPa
314.2 K	0.1374 ± 0.0064 kPa
317.2 K	0.1818 ± 0.0084 kPa
318.2 K	0.1891 ± 0.0088 kPa
318.4 K	0.1878 ± 0.0087 kPa
320.2 K	0.2187 ± 0.01 kPa
323.2 K	0.2655 ± 0.012 kPa
